How the values were obtained:
NC(11-55) = NC(11-55) (Human immunodeficiency virus type 1, UniProt P12493); test: NC inhibition assay (NC-induced cTAR DNA destabilization, fluorescence); assay type: biochemical, HIV-1; settings: for inhibition at 100 µM: single point screening, positive = >25% inhibition at 100µM
Method in brief: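 Doubly labelled cTAR (0.1 µM, Alexa488/Dabcyl) pre-complexed with 1 µM Zn-loaded NC(11-55) for 15 min, then compound added for a further 15 min; run at 20 °C in Tris-HCl pH 7.5, 30 mM NaCl, 0.2 mM MgCl2. Fluorescence read at ex 480/em 520 nm. IC50 taken from dose-response fit of % inhibition of NC-induced fluorescence increase.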

[1] = system: Peripheral blood mononuclear cells (PBMC); assay type: cell-based; settings: human, 7 days
Experimental: Peripheral blood mononuclear cells (PBMC) obtained from healthy donors by separation over Ficoll-Hypaque (GEHealthear-Cat.# GEH17-1440-02) were suspended at 2x10^6 cells/mL in RPMI 1640 (Biowest-Cat.#L0501-500) supplemented with 10% of heat-inactivated sterile fetal bovine serum (Gibco-Cat.#10270-106), 2 mmol/l L-glutamine (Biowest-Cat.#X0550-100), 50 U/mL Penicillin-50 µg/mL Streptomycin (Biowest-Cat.#L0022-100), referred to as complete medium (CM). PBMC were supplemented with 5 µg/mL of phytohaemagglutinin (Sigma Aldr-Cat.#L1668) and cultured in 75 cm^2 flasks (Sarsted-Cat.#833.911.002) for 2 days at 37 °C in a humidified atmosphere with 5% CO2.
PBMC were then washed in CM, counted by trypan blue exclusion (Gibco-Cat. #15250-061), centrifuged and suspended in fresh CM supplemented with 20 IU/mL recombinant human IL-2 (Miltenyi Biotec-Cat.#130-097-748) and seeded in a 96-well-tissue culture plate (Sarsted-Ca#831.837) at the density of 5x10^5 cells/mL (or 1x10^5 cells in 200 µL final CM volume per well). Cells were left untreated (negative control) or treated with different concentrations of the compounds.
After 7 days of incubation cytotoxicity was determined using Promega's CellTiter 96(R) AQueous One Solution Cell Proliferation Assay (MTS assay) (Promega-Cat.#G3581) according to the manufacturer's instuctions. This is a colorimetric method for determining the number of viable cells in proliferation or cytotoxicity assays. The MTS tetrazolium compound is bioreduced by cells into a colored formazan product that is soluble in tissue culture medium. This conversion is presumably accomplished by NADPH or NADH produced by dehydrogenase enzymes in metabolically active cells.
Briefly, MTS solution was thawed at room temperature, or in a water bath at 37 °C and 40 µL of MTS solution was pipeted into each well of the 96-well assay plate containing the samples in 200 µL of culture medium and incubated at 37 °C, 5% CO2 for 4 hours. The optical density was read at 490 nm using a 96-well plate reader (Tecan Infinite F50) and TD50 (toxic dose 50%, dose killing 50% of the cells compared to untreated control) value was calculated by interpolation of the curve obtained by plotting dose against percent mortality and by using "Magellan data analysis software". CM alone plus MTS solution was used as a blank, and cell culture well without compound was used as a cellular control.

| Compound | IC50 (NC(11-55)) | inhibition at 100 µM (NC(11-55)) | Proliferation assay PBMC TD50 [1] | TD50 [1] |
| --- | --- | --- | --- | --- |
| C[C@@H](NC(=O)c1nc(-c2ccc(N)cn2)nc(O)c1O)C1CCCCC1 [Compound 20, (R)-2-(5-aminopyridin-2-yl)-N-(1-cyclohexylethyl)-5,6-dihydroxypyrimidine-4-carboxamide] | 3 µM | > 25% | 1650 nM |  |
| C[C@@H](NC(=O)c1nc(-c2ccc(C(=O)OCc3ccccc3)cn2)nc(O)c1O)C1CCCCC1 [Compound 21, benzyl (R)-6-(4-((1-cyclohexylethyl)carbamoyl)-5,6-dihydroxypyrimidin-2-yl)nicotinate] | 10 µM | > 25% | <400 nM |  |
| C[C@@H](NC(=O)c1nc(-c2ccc3ccccc3n2)nc(O)c1O)C1CCCCC1 [Compound 22, (R)-N-(1-cyclohexylethyl)-5,6-dihydroxy-2-(quinolin-2-yl)pyrimidine-4-carboxamide] | 3 µM | > 25% | 8050 nM |  |
| Cc1cccnc1-c1nc(O)c(O)c(C(=O)N[C@H](C)C2CCCCC2)n1 [Compound 23, (R)-N-(1-cyclohexylethyl)-5,6-dihydroxy-2-(3-methylpyridin-2-yl)pyrimidine-4-carboxamide] | 20.5 µM | > 25% | 8900 nM | 8.9 µM |
| O=C(NC1(C2CCCCC2)CC1)c1nc(-c2ccccn2)nc(O)c1O [Compound 24, N-(1-cyclohexylcyclopropyl)-5,6-dihydroxy-2-(pyridin-2-yl)pyrimidine-4-carboxamide] | 22.5 µM | > 25% | 2600 nM |  |
| C[C@@H](NC(=O)c1nc(-c2cc3ccccc3cn2)nc(O)c1O)C1CCCCC1 [Compound 25, (R)-N-(1-cyclohexylethyl)-5,6-dihydroxy-2-(isoquinolin-3-yl)pyrimidine-4-carboxamide] | 3 µM | > 25% | 1750 nM |  |
| C[C@@H](NC(=O)c1nc(-c2cc(Cl)ccn2)nc(O)c1O)C1CCCCC1 [Compound 26, (R)-2-(4-chloropyridin-2-yl)-N-(1-cyclohexylethyl)-5,6-dihydroxypyrimidine-4-carboxamide] | 1.5 µM | > 25% | 2490 nM |  |
| C[C@@H](NC(=O)c1nc(-c2cc(C(F)(F)F)ccn2)nc(O)c1O)C1CCCCC1 [Compound 27, (R)-N-(1-cyclohexylethyl)-5,6-dihydroxy-2-(4-(trifluoromethyl)pyridin-2-yl)pyrimidine-4-carboxamide] | 12.5 µM | > 25% | 1075 nM |  |
| COc1ccnc(-c2nc(O)c(O)c(C(=O)N[C@H](C)C3CCCCC3)n2)c1 [Compound 28, (R)-N-(1-cyclohexylethyl)-5,6-dihydroxy-2-(4-methoxypyridin-2-yl)pyrimidine-4-carboxamide] | 22 µM | > 25% | 2700 nM | 2.7 µM |
| C[C@@H](NC(=O)c1nc(-c2nc3ccccc3[nH]2)nc(O)c1O)C1CCCCC1 [Compound 29, (R)-2-(1H-benzo[d]imidazol-2-yl)-N-(1-cyclohexylethyl)-5,6-dihydroxypyrimidine-4-carboxamide] | 2.5 µM | > 25% | 1700 nM |  |
| C[C@@H](NC(=O)c1nc(-c2ncccc2C(F)(F)F)nc(O)c1O)C1CCCCC1 [Compound 30, (R)-N-(1-cyclohexylethyl)-5,6-dihydroxy-2-(3-(trifluoromethyl)pyridin-2-yl)pyrimidine-4-carboxamide] |  | > 25% | 5400 nM |  |
| C[C@@H](NC(=O)c1nc(-c2nccc3ccccc23)nc(O)c1O)C1CCCCC1 [Compound 31, (R)-N-(1-cyclohexylethyl)-5,6-dihydroxy-2-(isoquinolin-1-yl)pyrimidine-4-carboxamide] | 3.5 µM | > 25% | 5000 nM | 5 µM |
